Data from patent publication US10071995B2, “Substituted oxopyridine derivatives” (BAYER PHARMA AKTIENGESELLSCHAFT, priority 2014, dated 2018).

Tests used:
[1] = biological target: human factor XIa (Homo sapiens (Human), UniProt P03951); test: Measurement of FXIa inhibition (fluorogenic peptide substrate); format: biochemical; settings: factor XIa from Kordia, substrate Boc-Glu(OBzl)-Ala-Arg-AMC, 22° C., 30 min
Experimental: (§1) The factor XIa inhibition of the substances according to the invention is determined using a biochemical test system which utilizes the reaction of a peptidic factor XIa substrate to determine the enzymatic activity of human factor XIa. Here, factor XIa cleaves from the peptic factor XIa substrate the C-terminal aminomethylcoumarin (AMC), the fluorescence of which is measured. The determinations are carried out in microtitre plates.
1 μl of the diluted substance solutions is placed into each of the wells of white microtitre plates from Greiner (384 wells). […] After 15 min of incubation, the enzyme reaction is started by addition of 20 μl of the factor XIa substrate Boc-Glu(OBzl)-Ala-Arg-AMC dissolved in assay buffer (10 μM in assay buffer) from Bachem, the mixture is incubated at room temperature (22° C.) for 30 min and fluorescence is then measured (excitation: 360 nm, emission: 460 nm). The measured emissions of the test batches with test substance are compared to those of control batches without test substance (only dimethyl sulphoxide instead of test substance in dimethyl sulphoxide), and IC50 values are calculated from the concentration/activity relationships.

[2] = biological target: human plasma kallikrein (Homo sapiens (Human), UniProt P03952); test: Determination of the plasma kallikrein activity (fluorogenic peptide substrate); format: biochemical; settings: plasma kallikrein from Kordia, substrate H-Pro-Phe-Arg-AMC, 22° C., 30 min
Experimental: as §1, with “To determine the plasma kallikrein” for “The factor XIa”, “invention,” for “invention is determined using”, “system is used” for “system”, “plasma kallikrein” for “factor XIa”, “plasma kallikrein.” for “factor XIa.”
1 μl of the diluted substance solutions is placed into each of the wells of white microtitre plates from Greiner (384 wells). 20 μl of assay buffer (50 mM Tris/HCl pH 7.4; 100 mM sodium chloride solution; 5 mM of calcium chloride solution; 0.1% of bovine serum albumin) and 20 μl of plasma kallikrein from Kordia (0.6 nM in assay buffer) are then added successively. After 15 min of incubation, the enzyme reaction is started by addition of 20 μl of the substrate H-Pro-Phe-Arg-AMC dissolved in assay buffer (10 μM in assay buffer) from Bachem, the mixture is incubated at room temperature (22° C.) for 30 min and fluorescence is then measured (excitation: 360 nm, emission: 460 nm). The measured emissions of the test batches with test substance are compared to those of control batches without test substance (only dimethyl sulphoxide instead of test substance in dimethyl sulphoxide), and IC50 values are calculated from the concentration/activity relationships.

Sequence of human factor XIa (P03951 388-625): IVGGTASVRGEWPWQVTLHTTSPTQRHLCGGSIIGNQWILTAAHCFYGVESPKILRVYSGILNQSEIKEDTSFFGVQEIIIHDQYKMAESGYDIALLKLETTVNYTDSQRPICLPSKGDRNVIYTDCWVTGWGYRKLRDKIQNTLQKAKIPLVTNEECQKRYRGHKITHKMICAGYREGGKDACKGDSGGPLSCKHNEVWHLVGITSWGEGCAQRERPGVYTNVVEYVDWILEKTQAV
Sequence of human factor XIa (P03951 19-387 partner): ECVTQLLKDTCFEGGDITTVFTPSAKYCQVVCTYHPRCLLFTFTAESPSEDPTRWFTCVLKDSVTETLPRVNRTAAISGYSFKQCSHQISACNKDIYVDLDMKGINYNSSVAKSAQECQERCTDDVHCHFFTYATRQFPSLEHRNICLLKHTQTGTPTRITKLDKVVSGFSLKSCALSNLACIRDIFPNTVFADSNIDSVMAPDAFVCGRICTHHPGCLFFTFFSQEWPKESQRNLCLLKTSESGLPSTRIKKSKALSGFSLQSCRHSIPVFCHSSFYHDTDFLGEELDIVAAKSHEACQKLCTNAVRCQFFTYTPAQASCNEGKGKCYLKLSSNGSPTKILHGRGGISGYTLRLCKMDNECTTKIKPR
Sequence of human plasma kallikrein (P03952 391-638): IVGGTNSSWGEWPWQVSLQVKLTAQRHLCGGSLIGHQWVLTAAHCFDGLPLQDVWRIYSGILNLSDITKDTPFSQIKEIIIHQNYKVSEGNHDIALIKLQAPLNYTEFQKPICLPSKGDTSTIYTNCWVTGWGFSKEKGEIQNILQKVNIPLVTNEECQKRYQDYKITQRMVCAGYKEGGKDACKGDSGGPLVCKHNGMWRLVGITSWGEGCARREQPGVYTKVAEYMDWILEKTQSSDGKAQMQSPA
Sequence of human plasma kallikrein (P03952 20-390 partner): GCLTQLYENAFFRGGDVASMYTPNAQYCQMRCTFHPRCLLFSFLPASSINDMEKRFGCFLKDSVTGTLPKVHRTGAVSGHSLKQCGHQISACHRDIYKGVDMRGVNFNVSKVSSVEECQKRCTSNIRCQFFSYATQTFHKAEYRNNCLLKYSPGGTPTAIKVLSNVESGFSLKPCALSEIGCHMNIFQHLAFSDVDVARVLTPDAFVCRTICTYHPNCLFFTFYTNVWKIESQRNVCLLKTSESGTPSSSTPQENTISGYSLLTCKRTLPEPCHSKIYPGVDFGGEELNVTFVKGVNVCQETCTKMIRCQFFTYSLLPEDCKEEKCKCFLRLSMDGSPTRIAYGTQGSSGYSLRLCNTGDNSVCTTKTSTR

IC50 [1] [nM]	IC50 [2] [nM]	Compound
34	–	COc1cn(C(Cc2ccccn2)C(=O)Nc2cc(F)c(C(N)=O)s2)c(=O)cc1-c1cc(Cl)ccc1C#N (racemic) [Example 3, 5-({2-[4-(5-Chloro-2-cyanophenyl)-5-methoxy-2-oxopyridin-1(2H)-yl]-3-(pyridin-2-yl)propanoyl}-amino)-3-fluorothiophene-2-carboxamide (racemate)]
29	36	COc1cn(C(Cc2ccncc2)C(=O)Nc2cc(F)c(C(N)=O)s2)c(=O)cc1-c1cc(Cl)ccc1C#N (racemic) [Example 4, 5-({2-[4-(5-Chloro-2-cyanophenyl)-5-methoxy-2-oxopyridin-1(2H)-yl]-3-(pyridin-4-yl)propanoyl}-amino)-3-fluorothiophene-2-carboxamide (racemate)]
6.9	47	COCCC(C(=O)Nc1ccc(C(=O)O)s1)n1cc(Cl)c(-c2cc(Cl)ccc2C#N)cc1=O (racemic) [Example 19, 5-({2-[5-Chloro-4-(5-chloro-2-cyanophenyl)-2-oxopyridin-1(2H)-yl]-4-methoxybutanoyl}amino)-thiophene-2-carboxylic acid (racemate)]
27	47	COCCC(C(=O)Nc1cc(F)c(C(N)=O)s1)n1cc(OC)c(-c2cc(Cl)ccc2C#N)cc1=O (single isomer, unassigned; enantiomer 1) [Example 10, 5-({2-[4-(5-Chloro-2-cyanophenyl)-5-methoxy-2-oxopyridin-1(2H)-yl]-4-methoxybutanoyl}-amino)-3-fluorothiophene-2-carboxamide (enantiomer 1)]
2.8	1.5	CNC(=O)c1ccc(NC(=O)C(Cc2ccn(C)n2)n2cc(OC)c(-c3cc(Cl)ccc3C#N)cc2=O)s1 (single isomer, unassigned; enantiomer 1) [Example 16, 5-({2-[4-(5 -Chloro-2-cyanophenyl)-5-methoxy-2-oxopyridin-1(2H)-yl]-3-(1-methyl-1H-pyrazol-3-yl)propanoyl}amino)-N-methylthiophene-2-carboxamide (enantiomer 1)]
5.4	1.6	CNC(=O)c1ccc(NC(=O)C(Cc2ccn(C)n2)n2cc(OC)c(-c3cc(Cl)ccc3C#N)cc2=O)s1 (racemic) [Example 15, 5-({2-[4-(5-Chloro-2-cyanophenyl)-5-methoxy-2-oxopyridin-1(2H)-yl]-3-(1-methyl-1H-pyrazol-3-yl)propanoyl}amino)-N-methylthiophene-2-carboxamide (racemate)]

The remaining lines, values behind:

Compound	IC50 [1] [nM]	IC50 [2] [nM]
COCCC(C(=O)Nc1cc(F)c(C(N)=O)s1)n1cc(OC)c(-c2cc(Cl)ccc2C#N)cc1=O (racemic) [Example 9, 5-({2-[4-(5-Chloro-2-cyanophenyl)-5-methoxy-2-oxopyridin-1(2H)-yl]-4-methoxybutanoyl}amino)-3-fluorothiophene-2-carboxamide (racemate)]	54	100
COc1cn(C(Cc2ccccn2)C(=O)Nc2ccc(C(=O)O)s2)c(=O)cc1-c1cc(Cl)ccc1C#N (racemic) [Example 18, 5-({2-[4-(5-Chloro-2-cyanophenyl)-5-methoxy-2-oxopyridin-1(2H)-yl]-3-(pyridin-2-yl)propanoyl}-amino)thiophene-2-carboxylic acid (racemate)]	2.6	–
COCCC(C(=O)Nc1ccc(C(=O)O)s1)n1cc(OC)c(-c2cc(Cl)ccc2C#N)cc1=O (racemic) [Example 7, 5-({2-[4-(5-Chloro-2-cyanophenyl)-5-methoxy-2-oxopyridin-1(2H)-yl]-4-methoxybutanoyl}amino)-thiophene-2-carboxylic acid (racemate)]	3	–
COc1cn(C(Cc2ccccn2)C(=O)Nc2cc(F)c(C(N)=O)s2)c(=O)cc1-c1cc(Cl)ccc1F (racemic) [Example 6, 5-({2-[4-(5-Chloro-2-fluorophenyl)-5-methoxy-2-oxopyridin-1(2H)-yl]-3-(pyridin-2-yl)propanoyl}-amino)-3-fluorothiophene-2-carboxamide (racemate)]	1200	> 10000
CNC(=O)c1ccc(NC(=O)C(Cc2cnco2)n2cc(OC)c(-c3cc(Cl)ccc3C#N)cc2=O)s1 (racemic) [Example 17, 5-({2-[4-(5-Chloro-2-cyanophenyl)-5-methoxy-2-oxopyridin-1(2H)-yl]-3-(1,3-oxazol-5-yl)-propanoyl}amino)-N-methylthiophene-2-carboxamide (racemate)]	6.2	–
COCCC(C(=O)Nc1ccc(C(N)=O)s1)n1cc(Cl)c(-c2cc(Cl)ccc2C#N)cc1=O (racemic) [Example 2, 5-({2-[5-Chloro-4-(5-chloro-2-cyanophenyl)-2-oxopyridin-1(2H)-yl]-4-methoxybutanoyl}amino)-thiophene-2-carboxamide (racemate)]	26	28
